Results taken from BindingDB's records for doi:10.1016/j.bmcl.2018.05.060 (Universidad De Granada, 2018).

Molecular target: Choline kinase alpha (Homo sapiens, UniProt P35790)
Test: Inhibition of human choline kinase alpha1 using [methyl-14C]choline as substrate assessed as reduction in rate of incorporation of 14C from [methyl-14C]choline into phosphocholine preincubated for 5 mins followed by substrate addition measured after 10 mins by scintillation counting

Sequence of Choline kinase alpha (P35790 whole entry): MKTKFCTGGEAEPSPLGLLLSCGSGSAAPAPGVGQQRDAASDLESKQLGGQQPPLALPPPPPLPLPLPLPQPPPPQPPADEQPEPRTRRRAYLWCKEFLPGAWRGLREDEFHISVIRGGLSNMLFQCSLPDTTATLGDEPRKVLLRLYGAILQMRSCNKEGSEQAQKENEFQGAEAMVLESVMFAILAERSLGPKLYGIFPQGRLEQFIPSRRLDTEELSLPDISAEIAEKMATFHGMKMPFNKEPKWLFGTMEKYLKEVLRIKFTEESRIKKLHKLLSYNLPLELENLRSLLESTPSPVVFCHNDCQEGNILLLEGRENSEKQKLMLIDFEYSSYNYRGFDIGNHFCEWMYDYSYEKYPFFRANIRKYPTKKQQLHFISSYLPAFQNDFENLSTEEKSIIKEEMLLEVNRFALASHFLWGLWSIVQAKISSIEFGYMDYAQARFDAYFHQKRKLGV

IC50: 6.85 µM
SMILES: CN(c1ccccc1)c1cc[n+](Cc2ccc(OCCOc3ccc(C[n+]4ccc(N(C)c5ccccc5)c5ccccc54)cc3)cc2)c2ccccc12
